Test results taken from patent US9434701B2, “Aminoquinoxaline derivatives for treatment of neurodegenerative diseases” (CENTRE NATIONAL DE LA RECHERCHE SCIENTIFIQUE (CNRS), priority 2011, dated 2016).
Entries after “also recorded” stand apart in the source; their conditions may differ.

Experiments:
[1] = influence of time before euthanasia, per os route: brain extract and plasma concentration; assay type: in vivo, C57BL\6J mice
Description: (§1) This study was done on C57BL\6J (instead of RjOrl:SWISS) mice treated with compound 4bc by IP or per os.
Mice treated per os received a treatment of 150 mg/kg to 10 mL/kg of a solution of compound 4bc over 5 days comprising twice daily administrations for 4 days and a once daily administration the last day.

[2] = influence of time before euthanasia, IP route: brain extract and plasma concentration; assay type: in vivo, C57BL\6J mice; settings: IP 70 mg/kg
Description: as §1
IP Route • Mice treated by IP route received a treatment of 70 mg/kg to […] of a solution of compound 4bc over 2 days comprising 2 IP injections the first day and 1 IP injection the second day.

[3] = toxicity: animal weight monitoring during per os treatment; assay type: in vivo
Description: Three groups were created: • mice who received the carrier orally at 10 mL/kg (Group V, n=4), • mice treated with compound 4bc orally at 150 mg/kg and at 10 mL/kg (Group T, n=6), • control mice who received no treatment (n=2). All the mice were treated or received the carrier twice daily for 4 days. On the 5th day, a last treatment was administered and the animals were euthanized between […]. after this last treatment according to the following plan:
The animals were weighed every day throughout the sub-chronic study in order to monitor their general condition. Animal weights were considered a good indicator of general health since a compound's toxicity is known to be characterized by loss of bodyweight over time.

[4] = tested on: dopaminergic fibers in the striatum and dopaminergic neurons in the substantia nigra; assay: neuroprotection in mice lesioned by intranasal MPTP (animal model of Parkinson's disease), TH immunohistochemistry; assay type: in vivo; settings: oral 150 mg/kg twice daily 2 days then 75 mg/kg once daily
Description: The goal of this study is to test by an […] study the neuroprotective activity of compound 4bc administered orally to a mouse after it is poisoned by intranasal administration of MPTP. The food intake and weight of the animals were also compared to a control group. The densitometric analysis of striatal fibers and count of dopaminergic cell bodies in the substantia nigra, after immunohistochemical marking of tyrosine hydroxylase enabled quantifying the neuroprotective effect of the compound.
30 male C57BL\6J mice aged 3 months (supplier: Janvier Breeding Center) were used during this study.
Compound 4bc was administered orally at a dose of 150 mg/kg to 10 mL/kg, twice daily for two days, and then 75 mg/kg once daily. The carrier was composed of 0.5% Tween 80+99.5% carboxymethylcellulose (at 1% in water). A curved rigid tube connected to a 1 mL Terumo syringe was used for administration.
MPTP, a toxin specific for dopaminergic neurons was administered intranasally. One mg (10 μl) of MPTP/HCl (Sigma) dissolved in a 0.9% NaCl solution was delivered per nostril with a 3-minute interval between the two nostrils. […]
To quantify the neuroprotective capacity of compound 4bc, an immunohistochemistry study was done on floating brain slices. Two brain anatomic structures were analyzed: the striatum (20 μm slices, 10 levels) and the substantia nigra (20 μm slices, 7 levels). […]

[5] = tested on: dopaminergic neurons (TH+) of rat embryo ventral midbrain culture; assay: neuritogenic activity: neurite outgrowth per cell / differentiation of TH+ neurons; assay type: cell-based
Description: Quinoxaline derivatives were tested on a dopaminergic neuron spontaneous degeneration model in culture according to the protocol described in the article by F. Schmidt et al. […] This model consists of culturing rat embryo ventral midbrain. This part of the brain in culture contains a proportion of dopaminergic neurons of 5% of the total neurons; the other neurons are mainly GABAergic. These cultures are also composed of glial cells, i.e., astrocytes, oligodendrocytes and microglia. These cultures are characterized by progressive neuron death. […] To assess the neuritogenic activity of compounds according to the invention, neurite outgrowth per cell was quantified using the Neurite Outgrowth software developed by Xplora Nova. At least 60 neurons per condition were photographed and studied.

[6] = tested on: dopaminergic neurons (TH+) of rat embryo ventral midbrain culture; assay: dopaminergic neuron spontaneous degeneration model in culture, TH+ neuron count after 8 days (Schmidt et al. protocol); assay type: cell-based
Description: Quinoxaline derivatives were tested on a dopaminergic neuron spontaneous degeneration model in culture according to the protocol described in the article by F. Schmidt et al. […] This model consists of culturing rat embryo ventral midbrain. This part of the brain in culture contains a proportion of dopaminergic neurons of 5% of the total neurons; the other neurons are mainly GABAergic. These cultures are also composed of glial cells, i.e., astrocytes, oligodendrocytes and microglia. These cultures are characterized by progressive neuron death.

[7] = per os 150 mg/kg, approximately 1 h 30 min
[8] = per os 150 mg/kg, approximately 2 h
[9] = per os 150 mg/kg, approximately 2 h 25 min

SMILES: Cc1nc2ccc(N)cc2nc1-c1ccccc1 [Compound 4bc]
- concentration at 1 h ([1]; C57BL\6J, mouse, brain extract, oral, per os 150 mg/kg over 5 days, approximately 1 h after last treatment): 2200 ng/mL
- crossing of the blood-brain barrier in vivo ([1]; oral administration): able to cross the mouse or rat blood-brain barrier
- Brain extract concentration ([1]; per os 150 mg/kg over 5 days, approximately 1 h after last treatment): 2.2 µg/mL
- Plasma concentration ([1]; per os 150 mg/kg, approximately 1 h): 11600 ng/mL
- Brain extract concentration [1, 7]: 0.2 µg/mL
- Plasma concentration [1, 7]: 700 ng/mL
- Brain extract concentration [1, 8]: 0.1 µg/mL
- Plasma concentration [1, 8]: 40 ng/mL
- Brain extract concentration [1, 9]: 0.05 µg/mL
- Plasma concentration [1, 9]: 400 ng/mL
- concentration at 1 h ([2]; C57BL\6J, mouse, brain extract, 3 injections over 2 days, euthanasia approximately 1 h after last treatment): 1000 ng/mL
- Brain extract concentration ([2]; 3 injections over 2 days, euthanasia approximately 1 h after last treatment): 1 µg/mL
- Plasma concentration ([2]; approximately 1 h): 1200 ng/mL
- Brain extract concentration ([2]; approximately 1 h 30 min): 0.74 µg/mL
- Plasma concentration ([2]; approximately 1 h 30 min): 3100 ng/mL
- Brain extract concentration ([2]; approximately 1 h 55 min): 0.1 µg/mL
- Plasma concentration ([2]; approximately 1 h 55 min): 1700 ng/mL
- Brain extract concentration ([2]; approximately 2 h 20 min): 0.09 µg/mL
- adverse reactions ([3]; oral, 300 mg/kg/day over a 5-day treatment): without adverse reactions
- toxicity from animal weight gain ([3]; per os, 300 mg/kg/day, 5 days): absence of significant toxicity
- neuroprotective activity on dopaminergic fibers in vivo (FIGS. 9 and 10) ([4]; intranasal MPTP, Mann-Whitney test): significant neuroprotective activity
- mild toxicity in animals who received only the compound (T/NL) ([4]; not lesioned): not significant
- TH+ neuron differentiation / neuritogenic effect (in words, FIG. 1) ([5]; 100 nM, versus negative control): significant increase; also recorded: longer and more numerous neurite extensions
- activity at 0.1 µM ([5]; Rattus norvegicus, Neuron, compound at 100 nM, read-out: Diff in % of control ± SEM): 142%
- activity on survival of dopaminergic neurons (in words) ([6]; 100 nM, compared with dbcAMP): nearly equal to the one induced by dbcAMP
- activity at 0.1 µM ([6]; Rattus norvegicus, Neuron, 192 h, compound at 100 nM, 8 days of culture, read-out: TH+ neurons in % of control ± SEM): 140%
